Like-named read-outs stand apart in the source and are kept apart here. Blank lines part the entries; values can stand above or below the molecule they belong to.
Tests used:
[1] = target: T1, JanthE (Janthinobacterium sp. HH01, UniProt A0AAT8XUE4, K568S, form not given); test: initial-rate kinetics, formation of product […]; type: biochemical; conditions: 1 mM Mg2+, 0.05 mM ThDP, 200 mM NaCl, 100 mM sodium phosphate pH 8, read-out: K567S
T1 construct: purified enzyme; expression and tag details only in supplement
T1 sequence (A0AAT8XUE4 entry or part of it K568S, form open): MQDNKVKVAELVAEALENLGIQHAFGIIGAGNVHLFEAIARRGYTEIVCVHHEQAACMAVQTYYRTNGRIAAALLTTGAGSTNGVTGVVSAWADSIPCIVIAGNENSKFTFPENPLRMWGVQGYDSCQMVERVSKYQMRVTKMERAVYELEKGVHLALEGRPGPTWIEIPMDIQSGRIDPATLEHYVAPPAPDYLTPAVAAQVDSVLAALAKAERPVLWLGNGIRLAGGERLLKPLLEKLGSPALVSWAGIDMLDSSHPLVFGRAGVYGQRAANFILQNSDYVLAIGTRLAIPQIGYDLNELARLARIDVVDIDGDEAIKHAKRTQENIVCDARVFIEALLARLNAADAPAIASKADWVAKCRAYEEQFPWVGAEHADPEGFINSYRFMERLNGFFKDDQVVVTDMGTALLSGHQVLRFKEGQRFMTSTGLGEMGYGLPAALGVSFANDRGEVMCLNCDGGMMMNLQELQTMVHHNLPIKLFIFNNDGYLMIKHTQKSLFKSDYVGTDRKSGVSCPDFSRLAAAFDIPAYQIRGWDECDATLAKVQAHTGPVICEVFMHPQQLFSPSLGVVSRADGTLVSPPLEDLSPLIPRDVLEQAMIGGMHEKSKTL

[2] = substrate: CC(=O)COc1ccccc1; test: purified protein; type: biochemical, Janthinobacterium sp. HH01; conditions: 50 mM 2-oxobutanoate co-substrate, 1 mM Mg2+, 0.05 mM ThDP, 200 mM NaCl, 100 mM sodium phosphate pH 8
[3] = substrate: CCC(=O)C(=O)O; test: purified protein; type: biochemical, Janthinobacterium sp. HH01; conditions: 20 mM phenoxy-2-propanone co-substrate, 1 mM Mg2+, 0.05 mM ThDP, 200 mM NaCl, 100 mM sodium phosphate pH 8

Km ([1]; 20 mM phenoxy-2-propanone co-substrate): 0.74 ± 0.31 mM
Molecule: CCC(=O)C(=O)O [compound 2, 2-oxobutanoate]

Km ([1]; 50 mM 2-oxobutanoate co-substrate): 31.8 ± 6 mM
Molecule: CC(=O)COc1ccccc1 [compound 6, phenoxy-2-propanone]

B1: JanthE (Janthinobacterium sp. HH01) (protein)
chain: MQDNKVKVAELVAEALENLGIQHAFGIIGAGNVHLFEAIARRGYTEIVCVHHEQAACMAVQTYYRTNGRIAAALLTTGAGSTNGVTGVVSAWADSIPCIVIAGNENSKFTFPENPLRMWGVQGYDSCQMVERVSKYQMRVTKMERAVYELEKGVHLALEGRPGPTWIEIPMDIQSGRIDPATLEHYVAPPAPDYLTPAVAAQVDSVLAALAKAERPVLWLGNGIRLAGGERLLKPLLEKLGSPALVSWAGIDMLDSSHPLVFGRAGVYGQRAANFILQNSDYVLAIGTRLAIPQIGYDLNELARLARIDVVDIDGDEAIKHAKRTQENIVCDARVFIEALLARLNAADAPAIASKADWVAKCRAYEEQFPWVGAEHADPEGFINSYRFMERLNGFFKDDQVVVTDMGTALLSGHQVLRFKEGQRFMTSTGLGEMGYGLPAALGVSFANDRGEVMCLNCDGGMMMNLQELQTMVHHNLPIKLFIFNNDGYLMIKHTQKSLFKSDYVGTDRKSGVSCPDFSRLAAAFDIPAYQIRGWDECDATLAKVQAHTGPVICEVFMHPQQLFSPKLGVVSRADGTLVSPPLEDLSPLIPRDVLEQAMIGGMHEKSKTL
notes: purified enzyme; expression and tag details only in supplement
Km [2]: 24.6 ± 3.8 mM
Km [3]: 0.92 ± 0.26 mM
